# Reference: US20030125242A1, “Polypeptides comprising multimers of nuclear localization signals or of protein transduction domains and their use for transferring molecules into cells” (priority 1999, published 2003)
# Where no end group is shown, it is not given here.
# What was measured:
# HeLa S6 cells [1] = assay: nuclear transport of BSA covalently linked to peptide in digitonin permeabilized cells; format: cell-based; conditions: 600 nM peptide/BSA-BODIPY, 30 min, fluorescence microscope
# 16HBE14o-cells [2] = assay: luciferase transfection assay with vector/DNA (CMVL-W) complexes; format: cell-based
# DNase I = assay: stability of vector/DNA complexes against DNase I digestion, agarose gel; format: physicochemical; conditions: higher enzyme concentrations (2.5, 5, 10 U DNase I), 1 h at 37° C., 3 μg pEGFP
# 16HBE14o cells = assay: tracking of DNA-TOTO-3/(PKKKRKVG)4-FITC complexes on their way to the nucleus; format: cell-based; conditions: 100% confluent cells, 5 μg CMVL-W, 24 μg peptide (N/P 8)
# HeLa S6 cells [3] = assay: fluorescence in situ hybridisation of plasmid pEGFP after transfection (fluorescence microscopy and CLSM); format: cell-based; conditions: for location of plasmid DNA by CLSM: confocal laser scanning microscopy; for nuclear localization of plasmid DNA / cells showing signals in the nuclear region: fluorescence microscopy
# 16HBE14o-cells [4] = assay: proportion of transgene (GFP) expressing cells by flow cytometry; format: cell-based; conditions: 1 μg pEGFP/(PKKKRKVG)4 complexes (N/P 8), 24 hours
# Description: (A, B, D, E) Flow cytometry of 16HBE14o-cells transfected with DNA (pEGFP) or DNA complexed with (PKKKRKVG)4. Transfection was stopped after 24 hours. Cells were treated with trypsin and resuspended in medium. FCS: Forward scatter. FH-1: green channel for the GFP signal. (A, B) Control. Cells were only transfected with 1 μg pEGFP. Mean: 5.66. M1: 96% of total cells. M2: 4% of total cells. (D, E) Transfection with 1 μg pEGFP/(PKKKRKVG)4 complexes (N/P 8). Mean: 10.25. M1: 55% of total cells. M2: 45% of total cells. Near half the cell population expresses green fluorescence protein. (C, F) Fluorescence microscopy images of HeLa S6 cells transfected with (C) 1 μg pEGFP or (F) 1 μg pEGFP complexed with (PKKKRKVG)4 (N/P 8). Images were taken with a 40× objective (exposure time: 2 sec).
# It was examined how many cells express the transgene product. 16HBE14o-cells were transfected with 1 μg pEGFP/(PKKKRKVG)4 complexes N/P 8 (24 hours) and measured by flow cytometry.
# 16HBE14o-cells [5] = assay: inhibition of gene transfer by excess of free peptide, luciferase assay; format: cell-based; conditions: 30 fold molar excess of free peptide added 20 min before the complexes
# COS7 cells [6] = assay: transfection efficiency at 4° C. compared with 37° C.; format: cell-based; conditions: 4 h transfection, COS7, luciferase after 24 h
# Description: Cells were transfected with 1 μg of CMVL-W complexed with C(YGRKKRRQRRRG)24 at N/P=10 for 4 h at 4° C. or at 37° C. Luciferase activity was measured (10 sec) after 24 h.
# At low temperatures such as 4° C. energy-dependent processes like the endosomal uptake are suppressed. For this reason transfection efficiency at 4° C. could be an indicator for the extend of endosomal uptake which takes place during the transfection period. Transfection was performed in the way as described above but for the 4° C. experiment the 24 well plate was incubated in a cool room at 4° C. for 4 h.
# COS7 cells [7] = assay: effect of peptide on gene transfer mediated by PEI, fractured Dendrimers and Lipofectamine; format: cell-based
substance,measurement,setting,value
"(PKKKRKVG)4: tetramer of the wild-type SV40 large T-antigen NLS PKKKRKV with a glycin added at the end of each NLS (SEQ ID NO: 5) (also: tetramer of PKKKRKVG, linkage not given here)",nuclear transport of covalently coupled BSA-BODIPY,HeLa S6 cells [1],transports the coupled BSA into the nucleus
same,cell transfection compared with DNA/Dendrimer-complexes,16HBE14o-cells [2],cell transfection as high as with DNA/Dendrimer-complexes
same,cell transfection higher as with DNA/poly-L-lysine 2.9 kD/INF7a complexes,16HBE14o-cells [2],1000 fold
same,enhancement of cell transfection compared to studies without endosomolytic agents,16HBE14o-cells [2],10 fold
same,transfection rates compared with different non-viral vectors,"16HBE14o-cells [2]; 1 μg CMVL-W, 4.8 μg (PKKKRKVG)4 (N/P 8), luciferase after 24 h",almost as high transfection rates as with Dendrimer/DNA complexes
same,increase of relative light units (RLU) per mg cell protein in comparison to poly-L-lysine,"16HBE14o-cells [2]; 1 μg CMVL-W, vs poly-L-lysine 2.9 kD/DNA complexes, luciferase after 24 h",100 fold
same,transfection results in comparison to transfections without (PKKKRKVG)4,"16HBE14o-cells [2]; 100% confluent cells, CMVL-W/Dendrimer complexes plus (PKKKRKVG)4",10 fold
same,effect of added (PKKKRKVG)4 on transfection efficiency of PEI/CMVL-W and Dendrimer/CMVL-W complexes,16HBE14o-cells [2]; added in increasing concentrations to polymer/DNA complexes,significant increase of transfection efficiency
same,DNA protection of complexed DNA against DNase I digestion,DNase I,still can bee seen
same,localization of complexes after 4 h,16HBE14o cells; 4 h,most of the complexes were outside the nucleus
same,localization of peptide and DNA after 30 h,16HBE14o cells; 30 h,could be found in the nucleus
same,location of plasmid DNA by CLSM,HeLa S6 cells [3]; 2 hours,already plasmid DNA in the nucleus
same,nuclear localization of plasmid DNA,HeLa S6 cells [3]; 2 hours,plasmid DNA could be detected within the nuclear region
same,location of plasmid DNA by CLSM,HeLa S6 cells [3]; 24 hours,accumulated in the nucleus
same,cells showing signals in the nuclear region,HeLa S6 cells [3]; 24 hours,68.9%
same,M1 of total cells,16HBE14o-cells [4],55%
same,M2 of total cells,16HBE14o-cells [4],45%
same,"Mean (GFP signal, flow cytometry)",16HBE14o-cells [4],10.25
same,cells showing a GFP signal,16HBE14o-cells [4],Approximately 50%
same,inhibition of gene transfer of DNA/(PKKKRKVG)4 complexes by free peptide,16HBE14o-cells [5],complete blockade of gene transfer
(PKTKRKVG)4: tetramer containing mutant large T-NLS (SEQ ID NO: 6); threonin mutant known to be transport deficient [reference compound],nuclear transport of covalently coupled BSA-BODIPY,HeLa S6 cells [1],no signal was seen in the nucleus
same,gene transfer efficiency compared with (PKKKRKVG)4/DNA complexes,16HBE14o-cells [2],significantly lower gene transfer efficiency
same,location of plasmid DNA by CLSM,HeLa S6 cells [3]; 2 hours,arranged around the nuclear membrane
same,nuclear localization of plasmid DNA,HeLa S6 cells [3]; 2 hours,nuclear localization of plasmid DNA was not seen
same,location of plasmid DNA by CLSM,HeLa S6 cells [3]; 24 hours,arranged around the nuclear membrane
same,cells showing signals in the nuclear region,HeLa S6 cells [3]; 24 hours,14.7%
"C(YGRKKRRQRRRG)2: dimer of HIV-1 TAT protein transduction domain YGRKKRRQRRR with G, N-terminal C (SEQ ID NO: 30) (CYGRKKRRQRRRG; also: dimer: C(YGRKKRRQRRRG)2, linkage not given here)",decrease of transfection efficiency at 4° C. compared to 37° C.,COS7 cells [6],19 fold
same,effect on gene transfer mediated by PEI,"COS7 cells [7]; peptide N/P=1, then PEI 25 kD N/P 10",enhances gene transfer
same,effect on gene transfer mediated by fractured dendrimers,"COS7 cells [7]; peptide N/P=1, then fractured Dendrimer N/P 4.5",enhances gene transfer
wheat germ agglutinin,nuclear transport of covalently coupled BSA-BODIPY,HeLa S6 cells [1],no signal was seen in the nucleus
